Data taken from patent publication US20150315218A1, “SALTS OF PRODRUGS OF PIPERAZINE AND SUBSTITUTED PIPERIDINE ANTIVIRAL AGENTS” (Bristol-Myers Squibb Company, priority 2004, published 2015).
Counter-ions that a name gives are not always drawn. Like-named read-outs stand apart in the source and are kept apart here. Each block holds one compound with its values, some of them ahead of it.

Legend:
[1] = IV and PO pharmacokinetic studies of prodrug salts (Iab, Ibb, Icb) in the dog, with historical parent data; assay type: in vivo, beagle dogs; conditions: for concentration at 24 h / concentration at 24 hr: read-out: C-24 hr; for Cmax: read-out: Cmax
Procedure: The IV and PO studies of Iab were conducted in a crossover fashion in three male beagle dogs (11±1.1 kg, Marshall Farms USA Inc., North Rose, N.Y.). There was a two-week washout period between the IV and PO studies.
(§1) In the IV study, Iab was infused via the cephalic vein at 1.2 mg/kg (free acid, or 0.95 mg/kg of IVa equivalent) over 5 min at a constant rate of 0.1 mL/kg/min. The concentration of the dosing solution was 2.4 mg/mL, and the dosing volume was 0.5 mL/kg. Serial blood samples were collected from the femoral artery before dosing and at 5, 10, 15, 30, 45 min, 1, 2, 4, 6, 8 and 24 hr after dosing.
In the PO study, the dogs were fasted overnight before dosing. Iab was administered by oral gavage at 6.6 mg/kg (free acid, or 5.2 mg/kg of IVa equivalent). The concentration of the dosing solution was 13.2 mg/mL, and the dosing volume was 0.5 mL/kg. Serial blood samples were collected before dosing and at 15, 30, 45 min, 1, 2, 4, 6, 8 and 24 hr after dosing.
The IV and PO studies of Ibb were conducted in male beagle dogs (10±0.78 kg, Marshall Farms USA Inc., North Rose, N.Y.). Three dogs were used in each study. Of the three dogs, two same dogs were used for both IV and PO studies. There was a two-week washout period between the IV and PO studies.
The concentration of the dosing solution was 2.6 mg/mL, and the dosing volume was 0.5 mL/kg. Serial blood samples were collected from the femoral artery before dosing and at 5, 10, 15, 30, 45 min, 1, 2, 4, 6, 8 and 24 hr after dosing.
In the PO study, the dogs were fasted overnight before dosing. […] The concentration of the dosing solution was 7.0 mg/mL, and the dosing volume was 1 mL/kg. Serial blood samples were collected before dosing and at 15, 30, 45 min, 1, 2, 4, 6, 8 and 24 hr after dosing.
The IV and PO studies of Icb were conducted in a crossover fashion in three male beagle dogs (12±2.8 kg, Marshall Farms USA Inc., North Rose, N.Y.). There was a two-week washout period between the IV and PO studies.
as §1, with “Icb” for “Iab”, “1.3” for “1.2”, “1.0” for “0.95”, “IVe” for “IVa”, “2.6” for “2.4”
In the PO study, the dogs were fasted overnight before dosing. […] The concentration of the dosing solution was 12 mg/mL, and the dosing volume was 0.5 mL/kg. Serial blood samples were collected before dosing and at 15, 30, 45 min, 1, 2, 4, 6, 8 and 24 hr after dosing.

[2] = IV and PO pharmacokinetic studies of prodrug salts (Iab, Ibb, Icb) in the rat, with historical parent data; assay type: in vivo, Sprague-Dawley rats; conditions: for AUC: read-out: AUCtot; for Cmax: read-out: Cmax; for half-life: read-out: T1/2 (converted); for MRT: read-out: MRT
Procedure: (§2) All blood samples (0.3 mL) were colleted in microtainers containing K2EDTA (Becton Dickinson, Franklin Lakes, N.J.) and placed on chipped ice. After centrifugation, plasma was separated and stored at −20° C. until analysis. The mono-lysine salt of Iab (Form 3, Lot 1) was used for the pharmacokinetic studies. The dosing solutions of Iab were prepared in either sterile water (for IV administration in dogs and monkeys) or distilled water (for all other dose administration).
Male Sprague-Dawley rats (300-350 g, Hilltop Lab Animals, Inc., Scottsdale, Pa.) with cannulas implanted in the jugular vein were used. The rats were fasted overnight in the PO pharmacokinetic studies. Blood samples were collected from the jugular vein.
In the IV study, Iab was delivered at 1.4 mg/kg (free acid, or 1.1 mg/kg of IVa equivalent) as a bolus over 0.5 min (n=3).
In the PO study, Iab was administered at 7.9 mg/kg (free acid, or 6.3 mg/kg of IVa equivalent) by oral gavage (n=3). The concentration of the dosing solution was 4.0 mg/mL, and the dosing volume was 2 mL/kg.
The pharmacokinetic parameters of Iab and IVa were calculated by Non-Compartmental Analysis using the […]™ software program (version 4.0.2, InnaPhase Co., Philadelphia, Pa.). The Cmax and Tmax values were recorded directly from experimental observations. The AUC0-n and AUCtot values were calculated using the mixed log-linear trapezoidal summations. The total body clearance (Cl), mean residence time (MRT), and the steady state volume of distribution (Vss) were also calculated after intravenous administration. The absolute oral bioavailability (expressed as %) was estimated by taking the ratio of dose-normalized AUC values after oral doses to those after intravenous doses.
as §2, with “Ibb” for “Iab”, “3)” for “3, Lot 1)”
(§3) The Cmax and Tmax values were recorded directly from experimental observations. The AUC0-n and AUCtot values were calculated using the mixed log-linear trapezoidal summations. The total body clearance (Cl), mean residence time (MRT), and the steady state volume of distribution (Vss) were also calculated after intravenous administration. The absolute oral bioavailability (expressed as %) was estimated by taking the ratio of dose-normalized AUC values after oral doses to those after intravenous doses.
In the IV study, Icb was delivered at 1.4 mg/kg (free acid, or 1.1 mg/kg of IVe equivalent) as a bolus over 0.5 min (n=3).
In the PO study, Icb was administered at 6.9 mg/kg (free acid, or 5.6 mg/kg of IVe equivalent) by oral gavage (n=3).
as §3

[3] = beagle, plasma, historical parent, PO 5 mg/kg, read-out: Bioavailability (%)
[4] = beagle, plasma, historical parent, PO 5 mg/kg, read-out: Tmax (hr), PO
[5] = male, beagle, plasma, oral prodrug, read-out: Bioavailability (%) of parent from prodrug
[6] = male, beagle, plasma, parent after oral prodrug (~5 mg/kg parent equivalent), read-out: Tmax (hr), PO
[7] = plasma, iv, 1 mg/kg, read-out: AUCtot
[8] = plasma, iv, 1 mg/kg, read-out: MRT
[9] = plasma, iv, 1 mg/kg, read-out: Vdss
[10] = plasma, po, 5 mg/kg, read-out: AUCtot
[11] = plasma, po, 5 mg/kg, read-out: Bioavailability
[12] = plasma, po, 5 mg/kg, read-out: Tmax
[13] = Sprague-Dawley, plasma, historical parent, PO 5 mg/kg, read-out: Bioavailability (%)
[14] = Sprague-Dawley, plasma, historical parent, PO 5 mg/kg, read-out: Tmax (hr), PO
[15] = male, Sprague-Dawley, plasma, oral prodrug, calculated from historical IV data of parent, read-out: Bioavailability (%) of parent from prodrug
[16] = male, Sprague-Dawley, plasma, parent after oral prodrug (~5-6 mg/kg parent equivalent), read-out: Tmax (hr), PO
[17] = plasma, oral, 5 mg/kg, read-out: C-24 hr
[18] = male, beagle, in vivo, iv, 1.28 mg/kg

- bioavailability [1, 3]: 179%
- Tmax [1, 4]: 0.5 h
- half-life ([1]; male, beagle, plasma, iv, […], read-out: T1/2 (converted)): 2 ± 0.21 h
- bioavailability [1, 5]: 310%
- bioavailability ([1]; male, beagle, plasma, oral, 7 mg/kg, read-out: Bioavailability): 310%
- concentration at 24 h ([1]; male, beagle, plasma, oral, 7 mg/kg): 0.037 ± 0.026 µM
- Tmax [1, 6]: 0.4 h
- AUC ([1]; male, beagle, plasma, po, 7 mg/kg, read-out: AUCtot): 66 ± 17 µM·h
- Cmax ([1]; male, beagle, plasma, po, 7 mg/kg): 20 ± 2.4 µM
- half-life ([1]; male, beagle, plasma, po, 7 mg/kg, read-out: T1/2 (converted)): 2.6 ± 0.21 h
- Tmax ([1]; male, beagle, plasma, po, 7 mg/kg, read-out: Tmax): 0.4 ± 0.13 h
- AUC [1, 7]: 3.8 µM·h
- clearance ([1]; plasma, iv, 1 mg/kg, read-out: CLtot): 9.8 mL/min/kg
- MRT [1, 8]: 1.8 h
- half-life ([1]; plasma, iv, 1 mg/kg, read-out: T1/2 (converted)): 1.6 h
- Vd [1, 9]: 1.1 L/kg
- concentration at 24 h ([1]; plasma, oral, 5 mg/kg): 0.034 µM
- AUC [1, 10]: 30 ± 11 µM·h
- bioavailability [1, 11]: 179 ± 56%
- Cmax ([1]; plasma, po, 5 mg/kg): 7.7 ± 0.71 µM
- half-life ([1]; plasma, po, 5 mg/kg, read-out: T1/2 (converted)): 2.7 ± 0.4 h
- Tmax [1, 12]: 0.5 ± 0.25 h
- Vdss ([2]; IV IVb 1 mg/kg, historical IVb): 0.49 ± 0.26 L/kg
- bioavailability ([2]; Sprague-Dawley (rats), breed of dogs and monkeys not stated, plasma, po, range over rats, dogs and monkeys, read-out: oral bioavailabilities of parent after administration of prodrug): 50 to 310%
- bioavailability [2, 13]: 60%
- Tmax [2, 14]: 4.7 h
- AUC ([2]; in vivo, po, 5 mg/kg): 86 ± 33 µM·h
- Cmax ([2]; in vivo, po, 5 mg/kg): 9.5 ± 2.8 µM
- half-life ([2]; male, Sprague-Dawley, plasma, iv, […]): 3 ± 1.8 h
- bioavailability [2, 15]: 50%
- Tmax [2, 16]: 0.83 h
- Cmax ([2]; male, Sprague-Dawley, plasma, po, 6.6 mg/kg): 19 ± 1.8 µM
- Tmax ([2]; male, Sprague-Dawley, plasma, po, 6.6 mg/kg, read-out: Tmax): 0.83 ± 0.14 h
- AUC ([2]; plasma, iv, 1 mg/kg): 24 ± 3.2 µM·h
- MRT ([2]; plasma, iv, 1 mg/kg): 5.6 ± 3.6 h
- half-life ([2]; plasma, iv, 1 mg/kg): 5.9 ± 4.9 h
- concentration at 24 h [2, 17]: 0.16 µM
- bioavailability [2, 11]: 60%
- half-life ([2]; plasma, po, 5 mg/kg): 3.7 ± 0.86 h
- Tmax [2, 12]: 4.7 ± 1.2 h
Compound: O=C(C(=O)N1CCN(C(=O)c2ccccc2)CC1)c1c[nH]c2c(-n3ccnn3)ncc(F)c12 [IVb]

- AUC [1, 18]: 0.61 ± 0.2 µM·h
- MRT [1, 18]: 0.14 ± 0.021 h
- Vd [1, 18]: 0.5 ± 0.088 L/kg
- clearance [1, 18]: 64 ± 18 mL/min/kg
- half-life [1, 18]: 0.25 ± 0.1 h
- T1/2 ([2]; male, Sprague-Dawley, in vivo, iv, […]): 5.04 ± 0.72 min
Compound: COc1cnc(-n2cnc(C)n2)c2c1c(C(=O)C(=O)N1CCN(C(=O)c3ccccc3)CC1)cn2COP(=O)(O)O [Icb, [3-[(4-benzoylpiperazin-1-yl)(oxo)acetyl]-4-methoxy-7-(3-methyl-1H-1,2,4-triazol-1-yl)-1H-pyrrolo[2,3-c]pyridin-1-yl]methyl dihydrogen phosphate, 2-amino-2-(hydroxymethyl)propane-1,3-diol salt (1:1)]

- bioavailability [1, 3]: 89%
- Tmax [1, 4]: 1.3 h
- AUC ([1]; male, beagle, plasma, iv, 1.28 mg/kg, read-out: AUCtot): 9.8 ± 3.6 µM·h
- bioavailability [1, 5]: 104%
- bioavailability ([1]; male, beagle, plasma, oral, 6.05 mg/kg, read-out: Bioavailability): 104%
- concentration at 24 hr ([1]; male, beagle, plasma, oral, 6.05 mg/kg): 0.22 ± 0.16 µM
- Tmax [1, 6]: 0.58 h
- AUC ([1]; male, beagle, plasma, po, 6.05 mg/kg, read-out: AUCtot): 72 ± 27 µM·h
- Cmax ([1]; male, beagle, plasma, po, 6.05 mg/kg): 16 ± 3.9 µM
- Tmax ([1]; male, beagle, plasma, po, 6.05 mg/kg, read-out: Tmax): 0.58 ± 0.38 h
- AUC [1, 7]: 14 ± 2.5 µM·h
- MRT [1, 8]: 6.3 ± 1.9 h
- Vd [1, 9]: 0.93 ± 0.14 L/kg
- concentration at 24 hr ([1]; plasma, oral, 5 mg/kg): 0.15 ± 0.027 µM
- AUC [1, 10]: 63 ± 2.4 µM·h
- bioavailability [1, 11]: 89 ± 12%
- Cmax ([1]; plasma, po, 5 mg/kg): 9.6 ± 0.87 µM
- Tmax [1, 12]: 1.3 ± 0.58 h
- AUCtot ([2]; PO IVc 5 mg/kg, historical IVc): 111 ± 25 µM·h
- bioavailability [2, 13]: 82%
- Tmax [2, 14]: 4 h
- bioavailability [2, 15]: 80%
- bioavailability ([2]; male, Sprague-Dawley, plasma, oral, […], read-out: Bioavailability): 80%
- Tmax [2, 16]: 0.8 h
- Tmax ([2]; male, Sprague-Dawley, plasma, po, […], read-out: Tmax): 0.8 ± 0.3 h
- AUC ([2]; plasma, iv, 1 mg/kg): 27 ± 4 µM·h
- MRT ([2]; plasma, iv, 1 mg/kg): 4.5 ± 0.77 h
- Vd [2, 9]: 0.36 ± 0.098 L/kg
- concentration at 24 hr [2, 17]: 0.19 ± 0.048 µM
- bioavailability [2, 11]: 82%
- Cmax ([2]; plasma, po, 5 mg/kg): 13 ± 3.6 µM
- Tmax [2, 12]: 4 h
- bioavailability ([2]; plasma, po, range over rats, dogs and monkeys, read-out: oral bioavailabilities of parent after administration of prodrug): 80 to 122%
Compound: COc1cnc(-n2cnc(C)n2)c2[nH]cc(C(=O)C(=O)N3CCN(C(=O)c4ccccc4)CC3)c12 [IVc]
